For series [1], the system named is NPM-ALK expressing lymphoma cells. The experiment in a line: s.c. challenge with NPM-ALK lymphoma cells after DNA vaccination. Format: in vivo, BALB/c mice. Conditions: vaccinated twice at a week interval; s.c. challenge one week after second vaccination. Here is the method:
FIG. 1. ALK vaccination prevents the growth of NPM-ALK positive lymphoma cells. (a,b) BALB/c mice were vaccinated on day 0 and 7 in both the tibial muscles with 40 μg of pDEST plasmid or with pDEST-ALK (ALK) plasmid coding for the full ALK tyrosine kinase intracytoplasmic domain (a) or with pDEST-ALKt (ALKt) coding for a truncated portion of ALK lacking the part of the tyrosine kinase domain (b). An additional group of mice was vaccinated with the pDEST-ALK or pDEST-ALKt plasmids combined with the same amount of a pcDNA3 plasmid coding for GM-CSF. […]
Mice were challenged subcutaneously in the right flank with 0.2 ml PBS of a single suspension containing 10^5 to 10^6 ALK-OVA and VAC lymphoid cells, as indicated in each experiment. The cages were coded, and the incidence and the growth of tumors were evaluated at the indicated times in a blind fashion. Neoplastic masses were measured with calipers in the two perpendicular diameters.
For DNA electroporation, 50 μg of pDEST empty vector or pDEST-ALK (ALK) vector in 20 μl of 0.9% NaCl with 6 mg/ml polyglutamate were injected on days 0 and 7 into both the tibial muscle of anesthetized BALB/c mice. […] Protection was evaluated as the percentage of lymphoma-free mice 21 days after challenge.

The subject of series [2] is NPM-ALK lymphoma cells. The experiment in a line: in vitro survival of lymphoma cells with doxorubicin (TMRM staining, flow cytometry). Type of series: cell-based, murine. Conditions: 24 or 48 hours, increasing concentrations. Here is the method: FIG. 6. NPM-ALK lymphoma cells are sensitive to doxorubicin. NPM-ALK lymphoma cells were incubated in vitro for 24 or 48 hours with increasing concentrations of doxorubicin. Percentages of alive cells were calculated by TMRM staining and flow cytometry analyses.
To mimic more strictly these clinical settings, the efficiency of the vaccination strategy disclosed herein in association with chemotherapy, which remains the standard therapeutic strategy for human Anaplastic Large Cell Lymphomas (ALCL), was tested.
(Flow cytometry measures light scatter and fluorescence of single cells or particles in a stream.)

For series [3], the system named is NPM-ALK lymphoma cells. The experiment in a line: i.v. lymphoma treated with single dose doxorubicin followed by DNA vaccination. Format: in vivo, BALB/c mice. The source says:
FIG. 2. Efficacy of ALK vaccination in preventing disseminated lymphoma growth and in lymphoma therapy (a,b) Disseminated growth of NPM-ALK lymphoma cells injected in the tail vein in mock or ALK plasmid vaccinated BALB/c mice. (a) All mock vaccinated mice challenged i.v. 7 days after the second vaccination with 1×10^6 NPM-ALK lymphoma died of lymphoma outgrowth within 50 days after challenge while 70% of ALK vaccinated mice remained alive and well for all the observation period of 180 days. […] (c) Increasing amounts of NPM-ALK lymphoma cells were injected s.c. in BALB/c mice on day 0. Mice were then vaccinated as described above on days 1 and 8. Tumor growth was followed over time. Data are from one of two independent experiments with at least 7 mice for each group. * P<0.01. (d) BALB/c mice were i.v. injected with 1×10^6 NPM-ALK lymphoma cells on day 0. On day 7 mice received i.v. 10 mg/kg of doxorubicin (dashed arrow) followed on days 14, 21 and 28 by DNA vaccination with empty (mock) or ALK-expressing plasmids (full arrows). Mice were then followed up to 90 days. […] Tumor size was measured over time. […]
A single dose chemotherapy protocols was employed using doxorubicin (10 mg/kg) 7 day prior the i.v. injection of a challenging dose (1×10^6) of NPM-ALK positive lymphoma cells. […] Tumor growth and overall survival were determined, overtime.

“Also recorded” adds a separate entry of the source.

Consider “pDEST-ALK^K210R: pDEST plasmid encoding cytoplasmic portion of kinase dead mutant K210R of ALK (SEQ ID No.:3)”, for which the “protection from localized lymphoma growth” value in series [1] is recorded as “total protection”.

On to `COc1cccc2c1C(=O)c1c(O)c3c(c(O)c1C2=O)C[C@@](O)(C(=O)CO)C[C@@H]3O[C@H]1C[C@H](N)[C@H](O)[C@H](C)O1` [doxorubicin], for which the “sensitivity of lymphoma cells (apoptosis / alive cells)” value in the series on NPM-ALK lymphoma cells [2] is given as “sensitive; also recorded: rapid apoptosis with low doses”. Besides, the cure rate in the series on NPM-ALK lymphoma cells [3] (chemotherapy alone (single dose doxorubicin one week after 1×10^6 cells i.v.)) was determined as 60%. Moreover, in the series on NPM-ALK lymphoma cells [3] (chemotherapy alone versus untreated mice), the survival entry is on record as “prolonged their survival”.

B1: pDEST-ALKt: pDEST plasmid with truncated form of ALK lacking part of the tyrosine kinase domain (SEQ ID No.: 2) (nucleic acid)
DNA: TGCTTTGCTGGCAAGACCTCCTCCATCAGTGACCTGAAGGAGGTGCCGCGGAAAAACATCACCCTCATTCGGGGTCTGGGCCATGGCGCCTTTGGGGAGGTGTATGAAGGCCAGGTGTCCGGAATGCCCAACGACCCAAGCCCCCTGCAAGTGGCTGTGAAGACGCTGCCTGAAGTGTGCTCTGAACAGGACGAACTGGATTTCCTCATGGAAGCCCTGATCATCAGCAAATTCAACCACCAGAACATTGTTCGCTGCATTGGGGTGAGCCTGCAATCCCTGCCCCGGTTCATCCTGCTGGAGCTCATGGCGGGGGGAGACCTCAAGTCCTTCCTCCGAGAGACCCGCCCTCGCCCGAGCCAGCCCTCCTCCCTGGCCATGCTGGACCTTCTGCACGTGGCTCGGGACATTGCCTGTGGCTGTCAGTATTTGGAGGAAAACCACTTCATCCACCGAGACATTGCTGCCAGAAACTGCCTCTTGACCTGTCCAGGCCCTGGAAGAGTGGCCAAGATTGGAGACTTCGGGATGGCCCGAGACATCTACAGGGCGAGCTACTATAGAAAGGGAGGCTGTGCCATGCTGCCAGTTAAGTGGATGCCCCCAGAGGCCTTCATGGAAGGAATATTCACTTCTAAAACAGACACATGGTCCTTTGGAGTGCTGCTATGGGAAATCTTTTCTCTTGGATATATGCCATACCCCAGCAAAAGCAACCAGGAAGTTCTGGAGTTTGTCACCAGTGGAGGCCGGATGGACCCACCCAAGAACTGCCCTGGGCCTGTATACCGGATAATGACTCAGTGCTGGCAACATCAGCCTGAAGACAGGCCCAACTTTGCCATCATTTTGGAGAGGATTGAATACTGCACCCAGGACCCGGATGTAATCAACACCGCTTTG
modifications: portion of cytoplasmic domain of ALK - human
As to B1, the “protection from localized lymphoma growth” value in series [1] was “total protection”.
